Consider 18 molecules from US20260001853A1, “ASCORBIC ACID DERIVATIVE OR SALT THEREOF, AND COSMETIC THEREOF” (SEIWA KASEI COMPANY, LIMITED, priority 2022, published 2026).

Data set [1] in a line: Stability test (residual rate by HPLC, odor, coloring). The format is physicochemical. As to conditions: 1% aqueous solution; for Coloring / Odor: total score of 10 panelists. Here is the method: With a dilute potassium hydroxide aqueous solution, 1% aqueous solution of each test sample was adjusted to pH 6, placed in a 50 mL screw tube, sealed, […], and then subjected to HPLC measurement (using a liquid chromatograph manufactured by Shimadzu Corporation) to determine the residual rate from the peak area. The residual rate, odor, and coloring degree were evaluated according to the following methods and criteria.
Residual rate: • ⊚: 90% or more • ◯: 80% or more, less than 90% • Δ: 60% or more, less than 80% • x: 20% or more, less than 60% • xx: Less than 20%
Evaluation was made by 10 panelists according to the following criteria. • 3: Almost odorless • 2: There is a slight strange odor. • 1: A strong odor is detected.
Based on the evaluation results, the following classification was made: • ⊚: Total score of 10 panelists is 25 or more • ◯: Total score of 10 panelists is 20-24 • Δ: Total score of 10 panelists is 16-19 • x: The total score of 10 panelists is 15 or less
Evaluation was made by 10 panelists according to the following criteria. • 3: Almost no change compared to immediately after preparation. • 2: Color changes compared to immediately after preparation. • 1: Strongly colored compared to immediately after preparation.
Based on the evaluation results, the following classification was made: • ◯: Total score of 10 panelists is 25 or more • Δ: Total score of 10 panelists is 16-24 • x: The total score of 10 panelists is 15 or less

Data set [2] concerns Normal human dermal fibroblasts. The data set can be described thus: Collagen production promoting effect (ELISA of supernatant). Type of data set: cell-based. The following applies: amount of collagen produced, % with control group taken as 100%; sample at 10 mmol/L or less, 48 hours, N=3. Here is the method: Normal human dermal fibroblasts were prepared in D-MEM containing 5% (v/v) fetal bovine serum to a cell density of […] cells/well, and pre incubated on a 96-well plate for 24 hours. After removing the medium, samples prepared to a predetermined concentration in D-MEM containing 5% (v/v) fetal bovine serum were added to each well and cultured for 48 hours. After completion of the culture, the amount of free collagen in the supernatant was quantified by ELISA method. The measurement was performed with N=3.
The amount of collagen produced when the samples were measured at a concentration of 10 mmol/L or less was compared with that of the control group, and the results (% values when the control group is taken as 100%) are shown in Tables 15 to 17 based on the following criteria. • <100%: ± • 100-120%: + • 120%: ++

The subject of a further data set is B16 melanoma 4A5 cells. The data set can be described thus: Melanin production inhibitory effect (theophylline-induced melanin production). The format is cell-based, mouse. The following applies: melanin production inhibition rate, sample at a concentration of 10 mM or less, 3 days culture, theophylline 1 mmol/L, N=4. Here is the method: As a test of the whitening effect, the effect on theophylline-induced melanin production in B16 melanoma 4A5 cells was evaluated for the ascorbic acid derivatives of the present invention according to the following procedure. A similar evaluation was also performed for a known ascorbic acid derivative for comparison. The results are shown in Tables 9 to 11. • (1) B16 mouse melanoma 4A5 cells were seeded in a 48-well plate at a cell density of 8.0×10^3 cells/well. • (2) After culturing for 24 hours in Dulbecco's modified Eagle's medium (manufactured by SIGMA, hereinafter abbreviated as “D-MEM”) containing 10% fetal bovine serum, the medium was replaced with D-MEM containing 10% fetal bovine serum containing theophylline (final concentration 1 mmol/L) and a specified concentration of a sample. • (3) After culturing for 3 days in the presence of the sample, the medium was removed using an aspirator, distilled water was added, and the cells were disrupted by ultrasonication. • (4) The amount of protein was then quantified using a BCA protein assay kit (manufactured by PIERCE), and the amount of melanin produced was measured by an alkali solubilization method. Sodium hydroxide was added to the cell lysate to a final concentration of 1 mol/L, and the solution was dissolved by heating (60° C., 30 minutes), thereafter the absorbance at 405 nm was measured using a microplate reader. The amount of melanin was calculated from a calibration curve prepared using synthetic melanin (SIGMA) as a standard. The amount of melanin per unit protein was calculated by dividing the amount of melanin by the amount of protein. • (5) The melanin production inhibition rate was calculated using the following formula.
[In the formula, A represents the amount of melanin per unit protein (g/g) when the sample was added, B represents the amount of melanin per unit protein (g/g) in the normal group, and C represents the amount of melanin per unit protein (g/g) in the control group.]
The melanin production inhibition rate when the sample was measured at a concentration of 10 mM or less is expressed as follows. The measurement was performed with N=4. • <20%: ± • 20-40%: + • 40-60%: ++ • 60-100%: +++

In data set [3] the test system is Normal human dermal fibroblasts (NHDF). The data set can be described thus: Hyaluronic acid production promoting effect (ELISA of supernatant). Type of data set: cell-based. The following applies: amount of hyaluronic acid produced, % with control group taken as 100%; sample at 10 mmol/L or less, 48 hours, N=3. Here is the method:
Normal human dermal fibroblasts (NHDF) were prepared in D-MEM containing 5% (v/v) fetal bovine serum to a cell density of 2.5× 10^4 cells/well, and then pre-incubated on a 96-well plate for 24 hours. After removing the medium, samples prepared in serum-free D-MEM were added to each well and cultured for 48 hours. After the culture was completed, the amount of hyaluronic acid in the supernatant was quantified by ELISA method. The measurement was performed with N=3.
The amount of hyaluronic acid produced when the samples were measured at a concentration of 10 mmol/L or less was compared with that of the control group, and the results (% values when the control group is taken as 100%) are shown in Tables 18 to 20 based on the following criteria. • <100%: ± • 100-120%: + • 120-150%: ++ • 150%: +++

Setting [4] is: pH 6, stored at 50° C., two weeks later.

Molecules are shown by their SMILES.

For the molecule `O=C1O[C@H]([C@@H](O)CO)C(O)=C1O` [Ascorbic acid], in data set [1] (pH 6, 50° C., initial), the Residual rate entry is “⊚ (⊚: 90% or more)”, the Coloring result is listed as “◯ (◯: Total score of 10 panelists is 25 or more)” and the Odor entry is on record as “◯ (◯: Total score of 10 panelists is 20-24)”. In data set [1] (setting [4]), the Residual rate result was “Δ (Δ: 60% or more, less than 80%)”; the Coloring result is on record as “Δ (Δ: Total score of 10 panelists is 16-24)”; the Odor entry is reported as “Δ (Δ: Total score of 10 panelists is 16-19)”.

`CCCCOC1=C(OCC(C)(C)O)C(=O)O[C@@H]1[C@@H](O)CO` [Synthesis Example 4, 2-O-(2-hydroxyisobutyl)-3-O-butylascorbic acid]: the “Collagen production promoting effect” value in data set [2] is “++ (120%: ++)”.

Take `CCCCCCOC1=C(OCC(C)(C)O)C(=O)O[C@@H]1[C@@H](O)CO` [Synthesis Example 5, 2-O-(2-hydroxyisobutyl)-3-O-hexyl ascorbic acid]: in data set [2], the “Collagen production promoting effect” value was “++ (120%: ++)”. Besides, the “Melanin production inhibition effect” value in the data set on B16 melanoma 4A5 cells is given as “+ (20-40%: +)”.

Turning to `CCCCCCCCOC1=C(OCC(C)(C)O)C(=O)O[C@@H]1[C@@H](O)CO` [Synthesis Example 6, 2-O-(2-hydroxyisobutyl)-3-O-octyl ascorbic acid], the “Collagen production promoting effect” value in data set [2] is listed as “++ (120%: ++)”. Also, the “Melanin production inhibition effect” value with B16 melanoma 4A5 cells is given as “+++ (60-100%: +++)”.

`CCCCCCCCCCOC1=C(OCC(C)(C)O)C(=O)O[C@@H]1[C@@H](O)CO` [Synthesis Example 7, 2-O-(2-hydroxyisobutyl)-3-O-decyl ascorbic acid]: in data set [2], the “Collagen production promoting effect” value is listed as “++ (120%: ++)”. For the same molecule, in the data set with B16 melanoma 4A5 cells, the “Melanin production inhibition effect” value was “+++ (60-100%: +++)”.

As to `CCCCCCCCCCCCCCOC1=C(OCC(C)(C)O)C(=O)O[C@@H]1[C@@H](O)CO` [Synthesis Example 9, 2-O-(2-hydroxyisobutyl)-3-O-tetradecyl ascorbic acid], the “Collagen production promoting effect” value in data set [2] was “++ (120%: ++)”. Further, the “Melanin production inhibition effect” value in the data set with B16 melanoma 4A5 cells is given as “++ (40-60%: ++)”. In data set [3], the “Hyaluronic acid production promoting effect” value was “+++ (150%: +++)”.

For the molecule `CCCCCCCCCCCCCCCCOC1=C(OCC(C)(C)O)C(=O)O[C@@H]1[C@@H](O)CO` [Synthesis Example 10, 2-O-(2-hydroxyisobutyl)-3-O-hexadecylascorbic acid], in the data set on B16 melanoma 4A5 cells, the “Melanin production inhibition effect” value is reported as “+ (20-40%: +)”.

Consider `C=CCOC1=C(OCC(C)(C)O)C(=O)O[C@@H]1[C@@H](O)CO` [Synthesis Example 11, 2-O-(2-hydroxyisobutyl)-3-O-allylascorbic acid], for which, in data set [2], the “Collagen production promoting effect” value was “++ (120%: ++)”. The “Melanin production inhibition effect” value with B16 melanoma 4A5 cells is reported as “+++ (60-100%: +++)”. Moreover, the “Hyaluronic acid production promoting effect” value in data set [3] is reported as “++ (120-150%: ++)”.

With `CC(C)(O)COC1=C(OCc2ccccc2)[C@@H]([C@@H](O)CO)OC1=O` [Synthesis Example 12, 2-O-(2-hydroxyisobutyl)-3-O-benzyl ascorbic acid], the “Collagen production promoting effect” value in data set [2] is on record as “++ (120%: ++)”. In addition, in the data set on B16 melanoma 4A5 cells, the “Melanin production inhibition effect” value is given as “+++ (60-100%: +++)”. Besides, the “Hyaluronic acid production promoting effect” value in data set [3] is “+++ (150%: +++)”.

As to `CC(C)(O)COC1=C(OCC(O)CO)[C@@H]([C@@H](O)CO)OC1=O` (stereo partly shown) [Synthesis Example 13, 2-O-(2-hydroxyisobutyl)-3-O-glyceryl ascorbic acid], in data set [2], the “Collagen production promoting effect” value is recorded as “++ (120%: ++)”. In addition, the “Melanin production inhibition effect” value in the data set with B16 melanoma 4A5 cells is listed as “++ (40-60%: ++)”. Besides, the “Hyaluronic acid production promoting effect” value in data set [3] is reported as “++ (120-150%: ++)”.

With `CCCCC(CC)COCC(O)COC1=C(OCC(C)(C)O)C(=O)OC1C(O)CO` (stereo not shown) [Synthesis Example 15, 2-O-(2-hydroxyisobutyl)-3-O-(2-hydroxy-3-O-ethylhexyl) ascorbic acid], the “Collagen production promoting effect” value in data set [2] was “++ (120%: ++)”. Further, the “Melanin production inhibition effect” value with B16 melanoma 4A5 cells is “+ (20-40%: +)”.

For `CCCCCCCCCCCCOCC(O)COC1=C(OCC(C)(C)O)C(=O)OC1C(O)CO` (stereo not shown) [Synthesis Example 16, 2-O-(2-hydroxyisobutyl)-3-O-(2-hydroxy-3-O-dodecyl) ascorbic acid], the “Melanin production inhibition effect” value with B16 melanoma 4A5 cells is listed as “+ (20-40%: +)”. The “Hyaluronic acid production promoting effect” value in data set [3] is listed as “++ (120-150%: ++)”.

As to `CCCCOC1=C(OCC(C)(C)O)[C@@H]([C@@H](O)CO)OC1=O` [Synthesis Example 19, 2-O-butyl-3-O-(2-hydroxyisobutyl) ascorbic acid], the “Collagen production promoting effect” value in data set [2] was “++ (120%: ++)”. The “Melanin production inhibition effect” value in the data set on B16 melanoma 4A5 cells was “+ (20-40%: +)”.

On to `CCCCCCOC1=C(OCC(C)(C)O)[C@@H]([C@@H](O)CO)OC1=O` [Synthesis Example 20, 2-O-hexyl-3-O-(2-hydroxyisobutyl) ascorbic acid], for which the “Collagen production promoting effect” value in data set [2] is on record as “++ (120%: ++)”. In the data set on B16 melanoma 4A5 cells, the “Melanin production inhibition effect” value is “++ (40-60%: ++)”.

On to `CCCCCCCCCCOC1=C(OCC(C)(C)O)[C@@H]([C@@H](O)CO)OC1=O` [Synthesis Example 22, 2-O-decyl-3-O-(2-hydroxyisobutyl) ascorbic acid], for which the “Melanin production inhibition effect” value in the data set on B16 melanoma 4A5 cells is “++ (40-60%: ++)”.

For `CC(C)(O)COC1=C(OCC(O)CO)C(=O)O[C@@H]1[C@@H](O)CO` (stereo partly shown) [Synthesis Example 28, 2-O-glyceryl-3-O-(2-hydroxyisobutyl) ascorbic acid], the “Melanin production inhibition effect” value in the data set on B16 melanoma 4A5 cells is “+ (20-40%: +)”. In data set [3], the “Hyaluronic acid production promoting effect” value is given as “++ (120-150%: ++)”.

With `CCCCOCC(O)COC1=C(OCC(C)(C)O)C(C(O)CO)OC1=O` (stereo not shown) [Synthesis Example 29, 2-O-(2-hydroxy-3-O-butyl)-3-O-(2-hydroxyisobutyl) ascorbic acid], the “Collagen production promoting effect” value in data set [2] was “++ (120%: ++)”.

`CCCCC(CC)COCC(O)COC1=C(OCC(C)(C)O)C(C(O)CO)OC1=O` (stereo not shown) [Synthesis Example 30, 2-O-(2-hydroxy-3-O-ethylhexyl)-3-O-(2-hydroxyisobutyl) ascorbic acid]: the “Melanin production inhibition effect” value with B16 melanoma 4A5 cells is listed as “+ (20-40%: +)”. The “Hyaluronic acid production promoting effect” value in data set [3] is “+++ (150%: +++)”.
